Reference: patent US11717556B2, “Stemness-suppressing composition comprising OCT4 function-inhibiting peptide” (NATIONAL CANCER CENTER, priority 2018, dated 2023)
Where no end group is shown, it is not given here.

Assays:
[1] = test system: OCT4 S236 phosphorylation in cell lines; test: Immunofluorescence staining of OCT4 phosphorylation after cell permeable peptide treatment; format: cell-based; conditions: cell permeable peptide 10 uM in cell culture solution, 2 days or more; immunofluorescence staining (FIG. 21)
[2] = test system: OCT4 S236 phosphorylation in NCCIT and NTERA-2 cell lines; test: Okadaic acid (PP1 inhibitor) treatment, western blotting and immunofluorescence staining of OCT4 S236 phosphorylation; format: cell-based, human; conditions: NCCIT and NTERA-2 treated with okadaic acid; western blotting and immunofluorescence (FIGS. 10, 11)
[3] = test system: OCT4 phosphorylation in NCCIT cell line; test: Western blotting of OCT4 phosphorylation in NCCIT cell line transformed with peptide vectors; format: cell-based, human; conditions: vector-expressed peptide, cultured 36 to 48 hours, western blotting quantified with ImageJ (FIG. 16)
Excerpt: In order to confirm the link between the phosphorylation of an octamer-binding transcription factor 4 (OCT4) protein and stemness, first, a cell line expressing OCT4 substituted with 236D as an OCT4 S236 phosphorylation mimetic mutant was constructed. For construction of cells, a lentivirus expressing short hairpin RNA ([…], SEQ ID NO: 1) and a puromycin resistance gene in a doxycycline-dependent manner was constructed, and primarily, NCCIT(ATCC® CRL-2073™) and NTERA-2 (ATCC® CRL-1973™), which are cancer stem cell lines, were transfected with the lentivirus. Then, a plasmid recombinant for expressing OCT4 wild type and blasticidine resistance genes, or OCT4 substituted with 236D which is a phosphorylation mimetic of OCT4 and blasticidine resistance genes in a pCAG-Flag-B/S vector was secondarily transfected into the transfected cell line using Lipofectamine 3000 (Thermo Fisher). […]
After an NCCIT cell line was transformed by inserting the vector constructed by the method in Example 5 into the NCCIT cell line using Lipofectamine 3000, and then cultured for 36 hours to 48 hours, western blotting was performed in the same manner as in Example 2.1. The quantification of western blotting was analyzed using ImageJ. […]

PP1 protein = test: Fluorescence polarization binding of FITC-bound peptides to purified PP1 protein
Procedure: Peptides in which FITC was bound to Helix-1, Helix-2, and Helix-3 in Example 4 were synthesized.
The peptides were uniformly aliquoted at a final concentration of 20 nM into a fluorescence polarization reaction buffer solution (10 mM HEPES pH7.5, 50 mM NaCl, 1 mM DTT, 1 mM EDTA, and 0.0025% Tween 20), a purified PP1 protein was added thereto, and then the resulting mixture was reacted for 30 minutes, and the results of measuring fluorescence polarization using TECAN Infinite F200 Pro are illustrated in FIG. 19.
The binding powers of Helix 3-1 (SEQ ID NO: 14), Helix 3-2 (SEQ ID NO: 15), Helix 3-3 (SEQ ID NO: 13), and Helix 3 were compared by narrowing the sequence involved in binding to PP1 in the Helix-3 sequence (SEQ ID NO: 11) consisting of 19 amino acids.

Question: With “11R-GGG-VVRVWFCNRRQK: Cell permeable peptide to which the sequence of Helix-3-3 was linked: RRRRRRRRRRRGGGVVRVWFCNRRQK (Cell penetrating peptide CPP H3-3)” as the compound, how does the “phosphorylation of OCT4” value [1] read?
Answer: increase in phosphorylation of OCT4

Question: Which “phosphorylation of OCT4” value [2] does the source give for `C=C1[C@@H](O)[C@@H]2O[C@]3(CC[C@H](/C=C/[C@@H](C)[C@@H]4CC(C)=C[C@@]5(O[C@H](C[C@@](C)(O)C(=O)O)CC[C@H]5O)O4)O3)CC[C@H]2O[C@@H]1[C@@H](O)C[C@H](C)[C@H]1O[C@@]2(CCCCO2)CC[C@H]1C` [okadaic acid] here?
Answer: the phosphorylation of OCT4 was increased

Question: For “Helix 1-3: Amino acid sequence NRVRGNLENLFLQCPKPTLQQISHIAQQLGLEKDVVRVWFCNRRQKGKRS; OCT4 function-inhibiting peptide, expressed from pCAG-F-puro vector (Helix 1-3)”, which “phosphorylation of OCT4” value [3] is on record?
Answer: the highest

Question: How did the “phosphorylation of OCT4” value [3] turn out when “Helix 1: Amino acid sequence NRVRGNLENL; OCT4 function-inhibiting peptide (also: FITC label (site not given here))” was run?
Answer: the highest

Question: For “Helix 3-3: Amino acid sequence VVRVWFCNRRQK; consisting of 12 amino acids (Helix 3-3)”, which “binding power to PP1 compared with Helix-3” value (PP1 protein; FITC-bound peptides, fluorescence polarization (FIG. 20)) is on record?
Answer: the same binding power as that of Helix-3

Question: “Helix 3: Amino acid sequence KDVVRVWFCNRRQKGKRSS; OCT4 function-inhibiting peptide consisting of 19 amino acids (Helix 3)” was tested. Which “binding to PP1 (fluorescence polarization values)” value (PP1 protein; FITC-bound peptide 20 nM, purified PP1 protein added, 30 minutes (FIG. 19)) did it give?
Answer: bound
